The test system of test [1] is S. aureus. Put plainly: MIC by NCCLS broth microdilution, S. aureus. The format is cell-based. The following applies: Mueller-Hinton Broth with 50 mg/L Ca2+, 37° C. How it is done:
(§1) Compounds were dissolved in 100% dimethyl sulfoxide and were diluted to the final reaction concentration (0.1 μg/mL-100 μg/mL) in microbial growth media. In all cases the final concentration of dimethyl sulfoxide incubated with cells is less than or equal to 1%. […] The optical densities (OD) of the bacterial cells, which measures bacterial cell growth and proliferation, were measured using a commercial plate reader. The MIC value is defined as the lowest compound concentration inhibiting growth of the test organism.

Test [2] has as its system E. faecalis. As to the kind of experiment: MIC by NCCLS broth microdilution, E. faecalis. It is filed as cell-based. The following applies: Mueller-Hinton Broth with 50 mg/L Ca2+, 37° C. Here is the method: as §1
A general note: Dilution methods test growth across graded concentrations, often in twofold steps.

On to “Boc-protected daptomycin α,β-tridecenoyl amide [Compound 110]”, for which the “MIC (μg/ml) S. aureus” value in test [1] is recorded as “+++ (the compound has an MIC (μg/ml) of 1 μg/ml or less)”. Also, the “MIC (μg/ml) E. faecalis” value in test [2] is on record as “++ (an MIC (μg/ml) or an ED50 (mg/kg) of more than 1 μg/ml or 1 mg/kg, respectively, but less than or equal to 10 μg/ml or 10 mg/kg, respectively)”.

The values are drawn from US7335725B2, “Lipopeptides as antibacterial agents” (priority 1999, dated 2008).
